The source of these data is ChEMBL document CHEMBL1121828, “Quantitative structure-selectivity relationships. Comparison of the inhibition of Escherichia coli and bovine liver dihydrofolate reductase by 5-(substituted-benzyl)-2,4-diaminopyrimidines” (J Med Chem, 1981).

The structures appear in SMILES notation.

Experiment [1] concerns the target T1, Dihydrofolate reductase (Bos taurus) (UniProt P00376).
T1 sequence (whole entry): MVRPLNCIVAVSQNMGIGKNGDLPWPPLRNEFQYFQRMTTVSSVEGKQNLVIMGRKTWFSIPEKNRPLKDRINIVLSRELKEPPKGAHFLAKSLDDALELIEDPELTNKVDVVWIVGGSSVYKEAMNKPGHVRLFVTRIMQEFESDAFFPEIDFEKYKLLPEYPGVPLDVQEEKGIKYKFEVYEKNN
Description: Inhibition of dihydrofolate reductase from bovine liver

Experiment [2] deals with T2, Dihydrofolate reductase (Escherichia coli) (UniProt P0ABQ4).
T2 sequence (whole entry): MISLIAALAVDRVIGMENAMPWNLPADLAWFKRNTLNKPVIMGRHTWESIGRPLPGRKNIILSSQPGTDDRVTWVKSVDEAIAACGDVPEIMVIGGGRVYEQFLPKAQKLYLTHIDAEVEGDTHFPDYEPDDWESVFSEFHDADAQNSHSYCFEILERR
Description: Compound is evaluated for the inhibition of dihydrofolate reductase from Escherichia coli

With `Nc1ncc(Cc2cccc(C(F)(F)F)c2)c(N)n1`, the Log 1/Ki app in experiment [1] was 5.53.

For `Nc1ncc(Cc2cccc(CO)c2)c(N)n1`, in experiment [1], the Log 1/Ki app amounted to 5.2. Regarding `Nc1ncc(Cc2cccc(I)c2)c(N)n1`, the Log 1/Ki app in experiment [1] is 6.15.

`CCCCOCc1cccc(Cc2cnc(N)nc2N)c1` yielded a Log 1/Ki app in experiment [1] of 5.86.

Consider `Nc1ncc(Cc2cccc(O)c2)c(N)n1`, for which the Log 1/Ki app in experiment [1] was 4.88. As to `COc1ccc(Cc2cnc(N)nc2N)cc1OC`, the Log 1/Ki app in experiment [1] was determined as 5.15. As to `Cc1ccc(Cc2cnc(N)nc2N)cc1`, the Log 1/Ki app in experiment [1] came out at 4.8.

`COCCOc1c(OC)cc(Cc2cnc(N)nc2N)cc1OC` gave a Log 1/Ki app in experiment [1] of 4.88.

As for `CCCCOc1ccc(Cc2cnc(N)nc2N)cc1`, the Log 1/Ki app in experiment [1] worked out at 5.74. With `Nc1ncc(Cc2ccc(OC(F)(F)F)cc2)c(N)n1`, the results for the Log 1/Ki app in experiment [1] and in experiment [2] were 5.42 and 6.57, respectively. With `CS(=O)(=O)Oc1cccc(Cc2cnc(N)nc2N)c1`, the Log 1/Ki app amounted to 5.58 in experiment [1] and 6.92 in experiment [2]. In experiment [1], `Nc1ccc(Cc2cnc(N)nc2N)cc1` had a Log 1/Ki app of 4.57. Still for that read-out and setting: for `COCc1cccc(Cc2cnc(N)nc2N)c1` the value was 5.49. Turning to `CC(=O)Nc1ccc(Cc2cnc(N)nc2N)cc1[N+](=O)[O-]`, the Log 1/Ki app was 5.16 in experiment [1] and 6.97 in experiment [2].
